Data reported in article PMC3663898 (Antiviral research, 2013).
Converted amounts (≈) assume the structure as drawn. Where two headings read alike, the source gives them in different places.

Assays:
DENV = assay: microbe, parasite or virus in culture; assay type: cell-based, DENV (serotype 2, New Guinea C); conditions: Dengue virus, BHK, 48 h; for EC50: read-out: DENV EC50; for EC90: read-out: DENV EC90
in vitro [1] = conditions: hamster
TCRV = assay: microbe, parasite or virus in culture; assay type: cell-based, Tacaribe virus (11573 strain); conditions: Mammarenavirus tacaribeense, Huh7.5, 48 h; for EC50: read-out: TARV EC50; for EC90: read-out: TARV EC90
[2] = male, Sprague-Dawley, rat, in vivo
in vivo = conditions: male, Sprague-Dawley, rat; for C0 / clearance / Vd / half-life: iv
[3] = test system: CYP1A2, CYP2C9, CYP2C19, CYP2D6 and CYP3A4; assay: in vitro; conditions: human
in vitro [4] = conditions: human
in vitro [5] = conditions: bovine
[6] = rat, in vivo; for rats with diarrhea: Sprague-Dawley, po, 200 mg/kg
in vitro [7] = conditions: human, Caco-2

OC[C@@H]1[C@@H](O)[C@H](O)[C@@H](O)CN1CCCCCCOc1cc(F)ccc1F [IHVR11029, (2R,3R,4R,5S)-1-(6-(2,5-difluorophenoxy)hexyl)-2-(hydroxymethyl)piperidine-3,4,5-triol]
EC50 (DENV): 0.75 ± 0.06 µM
EC90 (DENV): 6.3 ± 3.5 µM
CC50 (in vitro [1]): > 500 µM
EC50 (TCRV): 3.3 ± 2.7 µM
EC90 (TCRV): 69 ± 37.7 µM
F PO [2]: 92/ND/ND %
AUC IV ([2]; 5 mg/kg): 1990/9180/ND/ND μg*h/mL
AUC PO ([2]; 25 mg/kg): 1990/9180/ND/ND μg*h/mL
C0 (in vivo; 5 mg/kg): 1620 ng/mL
clearance (in vivo; 5 mg/kg): 42.3 mL/min/kg
Tmax (in vivo; po, 25 mg/kg): 4.17 h
IC50 [3]: > 10 µM
CC50 (in vitro [4]): > 500 µM
CC50 (in vitro [5]): > 500 µM
rats with diarrhea [6]: 50%
adverse event at lower doses [6]: sign of GI stress, such as anogenital staining or soft stool

CC(C)(C)C(=O)N(CCCCCCN1C[C@H](O)[C@@H](O)[C@H](O)[C@H]1CO)C1CCCCC1 [IHVR17028, N-cyclohexyl-N-(6-((2R,3R,4R,5S)-3,4,5-trihydroxy-2-(hydroxymethyl)piperidin-1-yl)hexyl)pivalamide]
EC50 (DENV): 0.3 ± 0.03 µM
EC90 (DENV): 1.7 ± 0.8 µM
CC50 (in vitro [1]): > 500 µM
EC50 (TCRV): 0.26 ± 0.08 µM
EC90 (TCRV): 26.7 ± 20.9 µM
AUC IV ([2]; 5 mg/kg): 1540/903/ND/ND μg*h/mL
AUC PO ([2]; 25 mg/kg): 1540/903/ND/ND μg*h/mL
C0 (in vivo; 5 mg/kg): 1660 ng/mL
Vd (in vivo; 5 mg/kg): 3 L/kg
clearance (in vivo; 5 mg/kg): 55.7 mL/min/kg
half-life (in vivo; 5 mg/kg): 0.88 h
Cmax (in vivo; po, 25 mg/kg): 180 ng/mL
Tmax (in vivo; po, 25 mg/kg): 1.56 h
solubility (physchem; pH 4, aqueous buffer): 299 µM (≈ 128 µg/mL)
solubility (physchem; pH 7.4, aqueous buffer): 311 µM (≈ 133 µg/mL)
IC50 [3]: > 10 µM
CC50 (in vitro [4]): > 500 µM
efflux ratio (in vitro [7]): 31.7
CC50 (in vitro [5]): > 500 µM
rats with diarrhea [6]: 100%
adverse event at lower doses [6]: sign of GI stress, such as anogenital staining or soft stool

CC(C)(C)NC(=O)N(CCCCCCN1C[C@H](O)[C@@H](O)[C@H](O)[C@H]1CO)C1CCCCC1 [IHVR19029, 3-(tert-butyl)-1-cyclohexyl-1-(6-((2R,3R,4R,5S)-3,4,5-trihydroxy-2-(hydroxymethyl)piperidin-1-yl)hexyl)urea]
mortality or clinical signs (Balb/c mice, single dose IP or IM up to 200mg/kg, 9-day observation): No mortality or clinical signs were observed
weight loss and GI alterations (mouse, in vivo): No significant weight loss and GI alterations
EC50 (DENV): 1.25 ± 1.1 µM
EC90 (DENV): 22.5 ± 10.6 µM
CC50 (in vitro [1]): > 500 µM
EC50 (TCRV): 0.74 ± 0.3 µM
EC90 (TCRV): 52.5 ± 38.9 µM
AUC IM [2]: 1383/945/1839/983 μg*h/mL
F PO [2]: 4.6/71/133%
AUC IP ([2]; ip, 5 mg/kg): 1383/945/1839/983 μg*h/mL
AUC IV ([2]; 5 mg/kg): 1383/945/1839/983 μg*h/mL
AUC PO ([2]; 75 mg/kg): 1383/945/1839/983 μg*h/mL
Tmax (in vivo): 0.167 h
Cmax (in vivo; im, 5 mg/kg): 1230 ng/mL
Tmax (in vivo; im, 5 mg/kg): 0.1 h
Cmax (in vivo; ip, 5 mg/kg): 1330 ng/mL
Tmax (in vivo; ip, 5 mg/kg): 0.17 h
C0 (in vivo; 5 mg/kg): 1790 ng/mL
Vd (in vivo; 5 mg/kg): 3 L/kg
clearance (in vivo; 5 mg/kg): 58.2 mL/min/kg
half-life (in vivo; 5 mg/kg): 1.2 h
Cmax (in vivo; po, 75 mg/kg): 260 ng/mL
Tmax (in vivo; po, 75 mg/kg): 2.1 h
solubility (physchem; pH 4, aqueous buffer): 309 µM (≈ 137 µg/mL)
solubility (physchem; pH 7.4, aqueous buffer): 303 µM (≈ 134 µg/mL)
IC50 [3]: > 10 µM
CC50 (in vitro [4]): > 500 µM
efflux ratio (in vitro [7]): 34.2
CC50 (in vitro [5]): > 500 µM
